Holding throughout (assay type): cell-based, human
Experiment [1] relates to LX-2 cells. Briefly: Fibrosis in LX-2 cells: Col1A1 mRNA induced by TGFβ1, Example 3. The note with it: 24 h. On the procedure:
FIG. 3 Human hepatic stellate cell line LX-2 was treated with vehicle (DMSO) or TGFβ1 (10 ng/ml) in the absence or presence of GP6 (10 or 40 μg/ml) for 24 h. RNA was extracted and mRNA levels of collagen 1A1 (Col1A1) relative to 18S were measured by RTPCR.
Cell culture reagents were from Life Technologies Inc (Invitrogen SA, Barcelona, Spain). HepG2 hepatoblastoma cells (cat. no. HB-8065; ATCC, LGC Standards SLU, Barcelona, Spain) were maintained in Dulbecco's modified Eagle medium (DMEM) supplemented with 10% fetal bovine serum and antibiotics. HepG2 cells were cultured for 5 day in the absence or presence of 30 mM fructose. Cells cultured in 30 mM fructose were daily treated with vehicle, Telmisartan, Semaglutide or GP6. LX-2 human hepatic stellate cells (SCC064) were maintained in DMEM supplemented with 2% fetal bovine serum and antibiotics. […]
Total RNA was extracted from HepG2 and LX-2 cells using TRIzol reagent (Invitrogen SA). […] Results were analyzed using the 7000 Sequence Detection System program (Applied Biosystems, Thermo Fisher Scientific, Barcelona, Spain) (Sex Hormone-Binding Globulin Reduction in Metabolic Disorders May Play a Role in NAFLD Development.Saez-Lopez C, Barbosa-Desongles A, Hernandez C, Dyer R A, Innis S M, Simo R, Selva D M. Endocrinology. 2017 Mar. 1; 158(3):545-559. doi: 10.1210/en.2016-1668).

Experiment [2] has as its system LX-2 cells. Briefly: Fibrosis in LX-2 cells: Col1A1 mRNA induced by TGFβ1, Example 7. The note with it: 24 h. As to the method:
FIG. 33. Effect of different peptides and SHBG on fibrosis in LX-2 cells.
LX-2 human hepatic stellate cells (SCC064) were maintained in DMEM supplemented with 2% fetal bovine serum and antibiotics. For experiments, LX-2 were cultured for 24 h in DMEM 0.2% FBS and treated for 24 h with vehicle or TGFβ1 (20 ng/ml) in the absence or presence of EDL6D (10 or 40 μg/ml). At the end of the experiment's cells were harvested for gene expression analysis.
Total RNA was extracted from HepG2 and LX-2 cells using TRIzol reagent (Invitrogen SA). Reverse transcription was performed at 42° C. for 50 minutes using […] of total RNA, 200 U of Superscript II, and an oligo-dT primer and reagents provided by Invitrogen. An aliquot of the reverse transcription product was amplified in a […] reaction using SYBRGreen (Invitrogen SA) with appropriate oligonucleotide primer pairs corresponding to human SHBG, ACC, FAS, ACLY, PPARG, and 18S and mouse ACC, FAS, ACLY, PPARG, Col1A1 and 18S. Results were analyzed using the 7000 Sequence Detection System program (Applied Biosystems, Thermo Fisher Scientific, Barcelona, Spain) (Shez-Lopez et al Endocrinology 2017).

For experiment [3], the system named is HepG2 cells. Description: Hepatic lipogenic key enzymes in HepG2 cells in the presence of 30 mM fructose (2 h), Example 7. The note with it: 40 μg/ml.

Take `CC[C@@H](C)[C@@H](NC(=O)[C@H](NC(=O)CNC(=O)[C@@H](CCC(=O)O)NC(=O)[C@H]1CCCN1C(=O)[C@@H](CC(=O)O)NC(=O)[C@@H](Cc1c[nH]c2ccccc12)NC(=O)[C@H](NC(=O)[C@@H](CCCNC(=N)N)NC(=O)[C@H](NC(=O)[C@@H](CCC(=O)O)NC(=O)[C@@H](Cc1ccccc1)NC(=O)[C@@H](CO)NC(=O)[C@@H](CO)NC(=O)[C@@H](CO)NC(=O)[C@H](NC(=O)[C@@H](CCCCN)NC(=O)[C@H](N)[C@H](C)O)[C@H](C)O)C(C)C)[C@H](C)O)C(C)C)C(=O)N[C@H](Cc1ccccc1)C(=O)N[C@H](Cc1ccc(O)cc1)C(=O)O` [GP6]: the “reduction of mRNA levels of collagen 1A1 induced by TGFβ1” value in experiment [1] (10 μg/ml) is 28%. Besides, the “reduction of mRNA levels of collagen 1A1 induced by TGFβ1” value in experiment [1] (40 μg/ml) is given as 45%. Also, in experiment [2], the “mRNA levels of collagen 1A1 induced by TGFβ1” value is given as “reduced the mRNA levels”. In experiment [3], the “fructose-induced expression of ACC” value is “able to reduce”, the “fructose-induced expression of ACLY” value was “able to reduce”, the “fructose-induced expression of FAS” value was “able to reduce” and the “fructose-induced expression of PPARγ” value is listed as “able to reduce”.

These data come from US20260297136A1, “PEPTIDES WITH LIPOLYTIC, ANTI-LIPOGENIC, ANTIFIBROTIC AND ANTI-INFLAMMATORY ACTIVITY” (FUNDACIÓ HOSPITAL UNIVERSITARI VALL D'HEBRON - INSTITUT DE …, priority 2023, published 2026).
